Measurements as given in patent US20060074243A1, “Hydroxamic acid and amide compounds and their use as protease inhibitors” (Pharmacia Corporation, priority 2002, published 2006).

Columns and labels:
[1] = biological target: T1, Human recombinant MMP-14 (Homo sapiens, UniProt P50281); test: In vitro MMP inhibition analysis (fluorogenic peptide substrate cleavage), Ki; assay type: biochemical
T1 construct: The catalytic domain enzyme was expressed in E. coli inclusion bodies, solubilized in urea; made in house
Procedure: (§1) Several compounds and salts were analyzed in an in vitro assay to determine their ability to inhibit the MMP cleavage of peptide substrates. Inhibition constant (Ki) were calculated from the assayed compound-MMP interactions.
(§2) Human recombinant MMP-1, MMP-2, MMP-9, MMP-13, and MMP-14 were used in this assay. All enzymes were prepared in Assignee's laboratories following usual laboratory procedures. Protocols for the preparation and use of these enzymes are available in the scientific literature. See, e.g., Enzyme Nomenclature (Academic Press, San Diego, Calif., 1992) (and the citations therein). See also, Frije et al., J. Biol. Chem., 26(24), 16766-73 (1994).
The MMP-14 full length cDNA was provided by Dr. Gregory Goldberg of Washington University (St. Louis, Mo.). The catalytic domain enzyme was expressed in E. coli inclusion bodies, solubilized in urea, purified on a preparative […] reverse phase HPLC column, and then refolded in the presence of zinc acetate and purified for use.
(§3) All MMPs were activated using 4-aminophenylmercuric acetate (“APMA”, Sigma Chemical, St. Louis, Mo.) or trypsin. MMP-9 also was activated using human recombinant MMP-3 (purified in Assignee's laboratory following standard cloning and purification techniques).
(§4) The following fluorogenic, methoxycoumarin-containing polypeptide substrate (I) was used in the MMP inhibition assays: MCA-ArgProLeuGlyLeuDpaAlaArgGluArgNH2 (I) “MCA” is 7-methoxycoumarin-4-yl acetyl. Substrate (I) was prepared Assignee's laboratory. In the absence of MMP inhibitory activity, the substrate is cleaved at the Gly-Leu peptide bond. This cleavage separates the highly fluorogenic peptide from the 2,4-dinitrophenyl quencher, thus resulting in increase of fluorescent intensity.
(§5) The stock solutions of the assayed compounds and salts were prepared in […] (DMSO). These stock solutions were diluted in Buffer A (100 mM Tris-HCl, 100 mM NaCl, 10 mM CaCl2, 0.05% polyoxyethylene 23 lauryl ether, pH 7.5) to obtain solutions with different compound concentrations, i.e., assay solutions with different concentrations of the assayed […] compound. The experiment controls contained the same amount of Buffer A/DMSO as the assayed sample, but contained none of the tested compound or salt.
(§6) The assays from which the Ki determinations were made were performed as follows. The assayed compound samples were incubated in separate wells of untreated white polystyrene plates (Nunc Nalgene International, Rochester, N.Y.), and analyzed on a Tecan SpectraFlour Plus plate reader. The excitation wavelength was 330 nm, and the emission wavelength—420 nm. All samples (assayed compounds and controls) were incubated in separate plate wells at room temperature for 1 hr in the presence of 4 μM of MMP substrate (I). In the absence of MMP inhibitory activity, substrate (I) was cleaved at the Gly-Leu bond resulting in an increase of relative fluorescence. Inhibition was observed as a reduced rate of this increase in relative fluorescence. […] This protocol is a modification of method by Knight et al., FEBS Lett., 296(3), 263-266 (1992). Apparent inhibitory constants were determined by non-linear regression of reaction velocity as a function of inhibitor and enzyme concentration using Morrison's equation, as described by Kuzmic, Anal. Biochem. 286, 45-50 (2000). Modifications were made in the non-linear regression method to allow a common control reaction rate and effective enzyme concentration to be shared between all dose-response relationships on a given assay plate. Since the substrate concentration was chosen to be at or below the Km, the apparent Ki's from this analysis were reported as Ki's without correction for the influence of substrate.
(§7) The above protocols were used to determine Ki constants for the compounds in Examples 2-35 above. All Ki values in Table 1 are given in nM units.

[2] = biological target: T2, Human recombinant MMP-1 (Homo sapiens, UniProt P03956); test: as above; assay type: biochemical
T2 construct: made in house; host or cells: MMP-1-transfected HT-1080 cells (spent media)
T2 sequence (P03956 100-469): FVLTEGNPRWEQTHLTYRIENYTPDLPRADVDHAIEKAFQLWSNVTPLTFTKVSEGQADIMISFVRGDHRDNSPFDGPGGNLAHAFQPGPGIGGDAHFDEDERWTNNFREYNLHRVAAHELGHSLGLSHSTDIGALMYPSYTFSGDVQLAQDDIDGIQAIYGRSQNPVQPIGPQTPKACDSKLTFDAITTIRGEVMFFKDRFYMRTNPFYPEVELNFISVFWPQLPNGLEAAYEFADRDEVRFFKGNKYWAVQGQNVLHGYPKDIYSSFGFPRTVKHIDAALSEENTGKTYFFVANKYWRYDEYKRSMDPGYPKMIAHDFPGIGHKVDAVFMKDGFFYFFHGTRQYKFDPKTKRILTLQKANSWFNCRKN
Procedure: as §1, §2
The MMP-1 proenzyme was purified from the spent media of MMP-1-transfected HT-1080 cells provided by Dr. Harold Welgus of Washington University (St. Louis, Mo.). The protein was purified on a zinc chelating column.
as §3, §4, §5, §6, §7

Ki ([1]; Table 2) [µM]	Ki ([2]; Table 2) [µM]	Ki ([1]; Table 1) [µM]	Ki ([2]; Table 1) [µM]	Compound
0.585	1.63	–	–	O=C(NO)C1(S(=O)(=O)c2ccc(-c3ccc(OCCCC(F)(F)F)cc3)cc2)CCOCC1 [Example 74]
–	–	2.58	> 10	CCN1CCC(C(=O)NO)(S(=O)(=O)c2ccc(-c3ccc(CCC(F)(F)C(F)(F)F)cn3)cc2)CC1 [Example 52]
0.152	2.49	–	–	COCC#Cc1cnc(-c2ccc(S(=O)(=O)C3(C(=O)NO)CCOCC3)cc2)cn1 [Example 164]
1.22	9.58	–	–	COCCN1CCC(C(=O)NO)(S(=O)(=O)c2ccc(-c3cnc(OCC(F)(F)C(F)(F)F)cn3)cc2)CC1 [Example 157]
0.414	1.01	–	–	O=C(NO)C1(S(=O)(=O)c2ccc(-c3ccc(-n4ccnc4)cc3)cc2)CCOCC1 [Example 127]
1.88	1.6	–	–	O=C(NO)C1(S(=O)(=O)c2ccc(-c3ncccn3)cc2)CCOCC1 [Example 121]
0.205	1.31	–	–	O=C(NO)C1(S(=O)(=O)c2ccc(-c3ccc(-c4ccccc4)cc3)cc2)CCN(C2CC2)CC1 [Example 153]
–	–	0.708	3.53	O=C(NO)C1(S(=O)(=O)c2ccc(-c3ccc(CCCC(F)(F)F)cn3)cc2)CCOCC1 [Example 69]
0.117	> 10	–	–	CCN1CCC(C(=O)NO)(S(=O)(=O)c2ccc(-c3noc(-c4ccc(C(F)(F)F)cc4)n3)cc2)CC1 [Example 149]
0.139	> 10	–	–	CCN1CCC(C(=O)NO)(S(=O)(=O)c2ccc(-c3noc(-c4ccc(F)cc4)n3)cc2)CC1 [Example 147]
> 10	> 10	–	–	O=C(NO)C1(S(=O)(=O)c2ccc(-c3cnc(-c4cccs4)cn3)cc2)CCOCC1 [Example 160]
2.87	> 10	–	–	O=C(NO)C1(S(=O)(=O)c2ccc(-c3ncc(CCC(F)(F)C(F)(F)F)cn3)cc2)CCOCC1 [Example 137]
> 1.25	> 1.25	–	–	CC(C)(C)CCNc1cnc(-c2ccc(S(=O)(=O)C3(C(=O)NO)CCOCC3)cc2)cn1 [Example 130]
3.48	9.63	–	–	CC(=O)Nc1cnc(-c2ccc(S(=O)(=O)C3(C(=O)NO)CCOCC3)cc2)cn1 [Example 76]
1.02	> 10	–	–	CCN1CCC(C(=O)NO)(S(=O)(=O)c2ccc(-c3noc(-c4ccncc4)n3)cc2)CC1 [Example 148]
1.01	> 10	–	–	CCN1CCC(C(=O)NO)(S(=O)(=O)c2ccc(-c3ccc(Oc4ccccc4)cc3)cc2)CC1 [Example 135]
0.12	0.391	–	–	O=C(NO)C1(S(=O)(=O)c2ccc(-c3ccc(-c4ccccc4)cn3)cc2)CCN(C2CC2)CC1 [Example 151]
–	–	0.831	8.47	COCCN1CCC(C(=O)NO)(S(=O)(=O)c2ccc(-c3ccc(CCC(C)(F)F)cn3)cc2)CC1 [Example 67]
–	–	2.93	> 10	O=C(NO)C1(S(=O)(=O)c2ccc(-c3cnc(CCC(F)(F)F)cn3)cc2)CCOCC1 [Example 62]
3.17	> 10	–	–	O=C(NO)C1(S(=O)(=O)c2ccc(-c3cscc3-c3ccc(F)cc3)cc2)CCOCC1 [Example 132]
> 2.5	> 2.5	–	–	O=C(NO)C1(S(=O)(=O)c2ccc(-c3cnc(NCC4CC4)cn3)cc2)CCOCC1 [Example 128]
0.311	2.46	–	–	CCCCOc1ccc(-c2ccc(S(=O)(=O)C3(C(=O)NO)CCN(C4CC4)CC3)cc2)cc1 [Example 120]

Ki ([1]; Table 2) [µM]	Ki ([2]; Table 2) [µM]	Ki ([1]; Table 1) [µM]	Ki ([2]; Table 1) [µM]	Compound
–	–	0.185	0.335	COCCN1CCC(C(=O)NO)(S(=O)(=O)c2ccc(-c3ccc(OC(F)(F)C(F)F)cc3)cc2)CC1 [Example 39]
0.604	> 10	–	–	CCCCc1ccc(-c2ccc(S(=O)(=O)C3(C(=O)NO)CCN(CC)CC3)cc2)nc1 [Example 140]
1.14	7.47	–	–	O=C(NO)C1(S(=O)(=O)c2ccc(-c3cnc(OCC(F)(F)C(F)(F)F)cn3)cc2)CCN(C2CC2)CC1 [Example 156]
–	–	0.237	1.75	COCCN1CCC(C(=O)NO)(S(=O)(=O)c2ccc(-c3ccc(CCC(C)(F)F)cc3)cc2)CC1 [Example 63]
0.493	1.84	–	–	O=C(NO)C1(S(=O)(=O)c2ccc(-c3cnc(OCC(F)(F)C(F)(F)F)cn3)cc2)CCOCC1 [Example 154]
–	–	1.14	5.11	O=C(NO)C1(S(=O)(=O)c2ccc(-c3ccc(CCC(F)(F)C(F)(F)F)cc3)cc2)CCOCC1 [Example 41]
–	–	> 10	> 10	O=C(NO)C1(S(=O)(=O)c2ccc(-c3cnc(CCCC(F)(F)F)cn3)cc2)CCOCC1 [Example 58]
–	–	1.59	6.87	COCCN1CCC(C(=O)NO)(S(=O)(=O)c2ccc(-c3ccc(CCCC(F)(F)F)cc3)cc2)CC1 [Example 43]
> 10	> 10	–	–	CCCCc1ccc(-c2ccc(S(=O)(=O)C3(C(=O)NO)CCN(CC)CC3)cc2)cn1 [Example 139]
0.187	0.481	–	–	O=C(NO)C1(S(=O)(=O)c2ccc(-c3ccc(OCCCC(F)(F)F)cn3)cc2)CCOCC1 [Example 144]
0.0567	0.327	–	–	CCOc1ccc(-c2ccc(S(=O)(=O)C3(C(=O)NO)CCOCC3)cc2)cc1 [Example 163]
–	–	3.96	> 10	CCN1CCC(C(=O)NO)(S(=O)(=O)c2ccc(-c3ccc(CCCC(F)(F)F)cn3)cc2)CC1 [Example 53]
–	–	0.446	0.65	O=C(NO)C1(S(=O)(=O)c2ccc(-c3ccc(OC(F)(F)C(F)F)cc3)cc2)CCN(CCl)CC1 [Example 38]
–	–	0.57	3.04	CCN1CCC(C(=O)NO)(S(=O)(=O)c2ccc(-c3ccc(CCC(C)(F)F)cc3)cc2)CC1 [Example 61]
0.741	2.17	–	–	CCN1CCC(C(=O)NO)(S(=O)(=O)c2ccc(-c3ccc(OCCCCO)cc3)cc2)CC1 [Example 118]
0.307	1.5	–	–	O=C(NO)C1(S(=O)(=O)c2ccc(-c3ccc(-c4ccccc4F)cn3)cc2)CCN(C2CC2)CC1 [Example 150]
0.171	1.77	–	–	CCCCOc1ccc(-c2ccc(S(=O)(=O)C3(C(=O)NO)CCN(CCOC)CC3)cc2)cc1 [Example 119]
0.303	3.35	–	–	O=C(NO)C1(S(=O)(=O)c2ccc(-c3ccc(CCC(F)(F)F)cc3)cc2)CCOCC1 [Example 161]
–	–	2.56	> 10	O=C(NO)C1(S(=O)(=O)c2ccc(-c3cnc(CCC(F)(F)C(F)(F)F)cn3)cc2)CCOCC1 [Example 55]
–	–	1.86	> 10	COCCN1CCC(C(=O)NO)(S(=O)(=O)c2ccc(-c3ccc(CCC(F)(F)C(F)(F)F)cc3)cc2)CC1 [Example 46]
0.56	3.39	–	–	O=C(NO)C1(S(=O)(=O)c2ccc(-c3ccc(-c4ccc(OC(F)(F)F)cc4)cn3)cc2)CCN(C2CC2)CC1 [Example 145]
